This is an account of results in patent publication US20260102359A1, “COMBINATION TREATMENT OF DERMAL AND TRANSDERMAL FIBROTIC DISEASES, DISORDERS AND ASSOCIATED PAIN AND INFLAMMATION” (ERESINA, LLC, priority 2022, published 2026).

Structures can show the parent of a compound that is named as a salt. Where a SMILES comes first, the peptide text is derived from it.

The data set relates to hDMFa myofibroblast cells.

As to `NC(=O)c1cccnc1` [Cmpd 705, Niacinamide], the “Compound Myofibroblast Cytotoxicity Activity” value is on record as “+”. With `CO[C@@]1(NC(=O)Cc2cccs2)C(=O)N2C(C(=O)O)=C(COC(N)=O)CS[C@@H]21` [Cmpd 234, Cefoxitin (sodium salt)], the “Compound Myofibroblast Cytotoxicity Activity” value was “+++++”. The entry for `NCCCNCCCCNCCCN` [Cmpd 887, Spermine] is “++”; for `O=c1c(-n2ccnn2)c[nH]n1-c1cc(N2CCOCC2)ncn1` [Cmpd 687, Molidustat (BAY85-3934)] it is “+++”; for `COc1cc(C(=O)O)ccc1O` [Cmpd 995, Vanillic acid] it is “++”.

With `C=C(CC)C(=O)c1ccc(OCC(=O)O)c(Cl)c1Cl` [Cmpd 434, Ethacrynic Acid], the “Compound Myofibroblast Cytotoxicity Activity” value is recorded as “+++”. The value for `NCC(=O)NCC(=O)O` [Cmpd 489, Glycylglycine] (H-Gly-Gly-OH) was “++”; that for `CC(C)N1CCN(c2ccc(OCC3COC(Cn4cncn4)(c4ccc(Cl)cc4Cl)O3)cc2)CC1` (stereo not drawn) [Cmpd 928, Terconazole] was “++”.

Consider `CCCCCCCCCCCCCCCCCC(=O)O` [Cmpd 889, Stearic Acid], for which the “Compound Myofibroblast Cytotoxicity Activity” value is listed as “+++”. The entry for `CN(C)CCCN1c2ccccc2CCc2ccc(Cl)cc21` [Cmpd 285, Clomipramine HCl] is “++”. The entry for `CN(CC(=O)O)C(=N)N.O` [Cmpd 295, Creatine monohydrate] is “++”.

For `O=c1ccn([C@@H]2O[C@H](COP(=O)([O-])OP(=O)([O-])OP(=O)([O-])O)[C@@H](O)[C@H]2O)c(=O)[nH]1.[Na+].[Na+].[Na+]` [Cmpd 990, UTP, Trisodium Salt], the “Compound Myofibroblast Cytotoxicity Activity” value was “++”. Consider `OC[C@H]1O[C@H](O[C@H]2[C@H](O)[C@@H](O)[C@@H](O[C@H]3[C@H](O)[C@@H](O)C(O)O[C@@H]3CO)O[C@@H]2CO)[C@H](O)[C@@H](O)[C@@H]1O` (mixture of isomers) [Cmpd 634, Maltotriose], for which the “Compound Myofibroblast Cytotoxicity Activity” value is listed as “+++”. The entry for `O=C(N/N=C/c1ccc([N+](=O)[O-])o1)c1ccc(O)cc1` [Cmpd 711, Nifuroxazide] is “++”; for `CNC1CCCN(c2c(F)cc3c(=O)c(C(=O)O)cn(C4CC4)c3c2OC)C1` (stereo not drawn) [Cmpd 154, Balofloxacin Dihydrate] it is “++”. The entry for `COc1cc(O)c(C(=O)c2ccccc2)cc1S(=O)(=O)O` [Cmpd 901, Sulisobenzone] is “++”; for `CCc1oc2ccccc2c1C(=O)c1cc(Br)c(O)c(Br)c1` [Cmpd 164, Benzbromarone] it is “++++”. The entry for `CCN(CC)CC(=O)Nc1c(C)cccc1C.Cl.O` [Cmpd 589, Lidocaine hydrochloride monohydrate] is “++”. For the compound `O=C(O)CCC(=O)O` [Cmpd 196, Butane diacid], the “Compound Myofibroblast Cytotoxicity Activity” value is “++”. The value for `Nc1ncnc2c1ncn2[C@@H]1O[C@H](COP(=O)(O)OP(=O)(O)O)[C@@H](O)[C@H]1O` [Cmpd 92] was “++”. In the case of `CCCCCCCCCCCCCCCC(=O)OC(CC(=O)O)C[N+](C)(C)C.[Cl-]` (racemic) [Cmpd 17, (±)-Palmitoylcarnitine chloride], the “Compound Myofibroblast Cytotoxicity Activity” value is “++”. The entry for `CCCOc1ccc2c(c1)CC[C@@H]1[C@@H]2CC[C@]2(C)[C@@H](OC)CC[C@@H]12` [Cmpd 800, Promestriene] is “++”. The value for `CC(=O)NS(=O)(=O)c1ccc(N)cc1` [Cmpd 894, Sulfacetamide sodium salt hydrate] was “++”. The value for `CCOc1ccc(Cc2cc([C@@H]3O[C@H](CO)[C@@H](O)[C@H](O)[C@H]3O)ccc2Cl)cc1.C[C@H](O)CO.O` [Cmpd 321, Dapagliflozin ((2S)-1,2-propanediol,hydrate)] was “++”; that for `CS(=O)(=O)CCNCc1ccc(-c2ccc3ncnc(Nc4ccc(OCc5cccc(F)c5)c(Cl)c4)c3c2)o1` [Cmpd 558, Lapatinib Ditosylate] was “+++”; that for `Oc1ncnc2[nH]ncc12` [Cmpd 37] was “+”. On to `C[C@H](CCC(=O)O)[C@H]1CC[C@H]2[C@@H]3[C@@H](O)C[C@@H]4C[C@H](O)CC[C@]4(C)[C@H]3CC[C@]12C` [Cmpd 988, Ursodeoxycholic Acid], for which the “Compound Myofibroblast Cytotoxicity Activity” value is recorded as “+”. As for `Cc1ccc(S(=O)(=O)/C=C/C#N)cc1` [Cmpd 158, Bay 11-7821(BAY 11-7082)], the “Compound Myofibroblast Cytotoxicity Activity” value was “+++++”.

`CC(=O)[C@@]1(O)CC[C@H]2[C@@H]3C[C@H](C)C4=CC(=O)C=C[C@]4(C)[C@@]3(F)[C@@H](O)C[C@@]21C` [Cmpd 463, Fluorometholone]: the “Compound Myofibroblast Cytotoxicity Activity” value was “++”.

In the case of `COc1ccc(Cc2cnc(N)nc2N)cc1OC` [Cmpd 349, Diaveridine], the “Compound Myofibroblast Cytotoxicity Activity” value is “++”. In the case of `Nc1ccc(S(=O)(=O)Nc2ccnn2-c2ccccc2)cc1` [Cmpd 899, Sulfaphenazole], the “Compound Myofibroblast Cytotoxicity Activity” value is “+++”. With `N=c1nc(N2CCCCC2)cc(N)n1OS(=O)(=O)O` [Cmpd 678, Minoxidil sulphate], the “Compound Myofibroblast Cytotoxicity Activity” value is recorded as “++”. The value for `CN(C/C=C/c1ccccc1)Cc1cccc2ccccc12` [Cmpd 696, Naftifine HCl] was “++”. The value for `Oc1c(Cl)cc(Cl)c(Cl)c1Cc1c(O)c(Cl)cc(Cl)c1Cl` [Cmpd 504, Hexachlorophene] was “+++++”; that for `S=C(NCc1ccc2c(c1)OCO2)N1CCN(c2ncnc3c2oc2ccccc23)CC1` [Cmpd 117, Amuvatinib (MP-470,HPK 56)] was “++”; that for `C#CCN[C@@H]1CCc2ccccc21` [Cmpd 821, Rasagiline] was “++”. For `CCC1=C[C@@H]2CN(C1)Cc1c([nH]c3ccccc13)[C@@](C(=O)OC)(c1cc3c(cc1OC)N(C)[C@H]1[C@@](O)(C(=O)OC)[C@H](OC(C)=O)[C@]4(CC)C=CCN5CC[C@]31[C@@H]54)C2` [Cmpd 1005, Vinorelbine], the “Compound Myofibroblast Cytotoxicity Activity” value is given as “++”.

For the compound `COC(=O)N[C@H](C(=O)N[C@@H](Cc1ccccc1)[C@@H](O)CN(Cc1ccc(-c2ccccn2)cc1)NC(=O)[C@@H](NC(=O)OC)C(C)(C)C)C(C)(C)C` [Cmpd 138, Atazanavir], the “Compound Myofibroblast Cytotoxicity Activity” value is “++”. For the compound `O=c1[nH]c2ccccc2n1CCCN1CCC(n2c(=O)[nH]c3cc(Cl)ccc32)CC1` [Cmpd 378, Domperidone], the “Compound Myofibroblast Cytotoxicity Activity” value was “++”. The value for `C=C1CC[C@H]2C(=C)CC[C@H]3C(=C)C(=O)O[C@@H]3[C@@H]12` [Cmpd 336, Dehydrocostus Lactone] was “+++++”; that for `COc1cc(NC(C)CCCN)c2ncccc2c1.O=P(O)(O)O.O=P(O)(O)O` (stereo not drawn) [Cmpd 796, Primaquine Diphosphate] was “+++”.

On to `Cc1ccc(C(C)C)cc1O` [Cmpd 220, Carvacrol], for which the “Compound Myofibroblast Cytotoxicity Activity” value was “++”.
